For orientation: TGI means the concentration giving total growth inhibition. Low values mean more potent growth arrest, high ones less potent growth arrest.

Experimental findings from PubChem BioAssay (NCI) are described below.

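The compound was tested at five concentrations on cells cultured in 96-well plates, with a 48-hour exposure period. TGI: concentration producing complete growth inhibition.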 Where only a bound is given, the exact number is not on record here.

Among the test systems are SF-295 CNS; UACC-62 melanoma; CAKI-1 renal; NCI-H522 lung; HOP-62 NSCLC; SK-OV-3 ovarian; KM12 colon; OVCAR-5 ovarian; UO-31 renal; CCRF-CEM leukemia; COLO 205 colon; NCI-H23 lung; EKVX NSCLC; NCI-H460 lung; UACC-257 melanoma; U251 CNS; MALME-3M melanoma; HCC-2998 colon; OVCAR-3 ovarian; A498 renal.
Common to all, as to assay: DTP human tumour cell line panel, 48 h

Take `COc1ccnc2c1C(=O)c1nc3ccccc3c3ccnc-2c13`: the TGI in the assay with SF-295 CNS was determined as 1.15 µM; in the assay with UACC-62 melanoma, 0.504 µM; with CAKI-1 renal, 0.6 µM; in the assay on NCI-H522 lung it was 0.262 µM; in the assay with HOP-62 NSCLC, 5.34 µM; with SK-OV-3 ovarian it was 0.645 µM. Besides, the TGI in the assay on KM12 colon amounted to 0.588 µM; in the assay on OVCAR-5 ovarian, 2.73 µM; with UO-31 renal it was 0.894 µM; with CCRF-CEM leukemia, 1.35 µM; in the assay on COLO 205 colon, 0.723 µM; in the assay with NCI-H23 lung it was 1.37 µM. Also, the TGI in the assay with EKVX NSCLC came out at 2.62 µM; in the assay with NCI-H460 lung, 0.139 µM; in the assay on UACC-257 melanoma, 0.536 µM; in the assay on U251 CNS, 0.61 µM; in the assay on MALME-3M melanoma, 1.3 µM; in the assay with HCC-2998 colon it was 1.52 µM. The TGI is greater than 100 µM in the assay on OVCAR-3 ovarian and 0.0803 µM in the assay on A498 renal.
On to `CCOC(=O)CC1CCN(C(=O)c2ccccc2)C2Cc3c([nH]c4ccccc34)C12C[N+](=O)[O-]` (stereo not drawn), for which the TGI with SF-295 CNS, in the assay on UACC-62 melanoma, in the assay on CAKI-1 renal, with NCI-H522 lung, with HOP-62 NSCLC and in the assay on SK-OV-3 ovarian was greater than 100 µM throughout. Also, the TGI in the assay with KM12 colon is greater than 100 µM; with OVCAR-5 ovarian, greater than 100 µM; in the assay on UO-31 renal it was greater than 100 µM; in the assay on CCRF-CEM leukemia, 51.3 µM; with COLO 205 colon, greater than 100 µM; in the assay on NCI-H23 lung it was greater than 100 µM. The TGI in the assay on EKVX NSCLC, in the assay on NCI-H460 lung, in the assay on UACC-257 melanoma, in the assay on U251 CNS, with MALME-3M melanoma and with A498 renal was greater than 100 µM in each case.
Turning to `O=c1c(-c2ccccc2)c(SCCCN2CCN(c3cccc(Cl)c3)CC2)n(-c2ccccc2)c(=S)n1-c1ccccc1`, the TGI in the assay on SF-295 CNS, in the assay with UACC-62 melanoma, in the assay with CAKI-1 renal, in the assay with NCI-H522 lung, in the assay with HOP-62 NSCLC and with SK-OV-3 ovarian was greater than 100 µM each time. In addition, the TGI in the assay on KM12 colon, in the assay on OVCAR-5 ovarian, in the assay with CCRF-CEM leukemia, in the assay on COLO 205 colon, with NCI-H23 lung and with EKVX NSCLC was greater than 100 µM throughout. In addition, the TGI with NCI-H460 lung, in the assay with UACC-257 melanoma, in the assay on U251 CNS, in the assay on MALME-3M melanoma, with HCC-2998 colon and with OVCAR-3 ovarian was greater than 100 µM in each case. In the assay with A498 renal, this molecule registered a TGI greater than 100 µM.
With `CCOC(=O)c1csc(NC(=O)C(C)N2CCCCC2)n1` (stereo not drawn), the total growth inhibition concentration (TGI) with SF-295 CNS, in the assay with UACC-62 melanoma, in the assay with CAKI-1 renal, in the assay on HOP-62 NSCLC, in the assay on SK-OV-3 ovarian and in the assay on KM12 colon was greater than 100 µM throughout. Also, the TGI in the assay on OVCAR-5 ovarian, in the assay on UO-31 renal, in the assay with CCRF-CEM leukemia, in the assay with COLO 205 colon, with NCI-H23 lung and in the assay on EKVX NSCLC was greater than 100 µM throughout. Also, the concentration for total growth inhibition (TGI) with NCI-H460 lung, in the assay with UACC-257 melanoma, in the assay with U251 CNS, in the assay on MALME-3M melanoma, in the assay with HCC-2998 colon and in the assay on OVCAR-3 ovarian was greater than 100 µM each time. This molecule also returned a TGI in the assay with A498 renal greater than 100 µM.
As for `COC(=O)C1OC(Oc2cc(O)c3c(=O)cc(-c4ccc(O)cc4)oc3c2)C(O)C(O)C1O` (stereo not drawn), the TGI in the assay on SF-295 CNS, in the assay with UACC-62 melanoma, in the assay on CAKI-1 renal, in the assay on NCI-H522 lung, with HOP-62 NSCLC and in the assay on SK-OV-3 ovarian was greater than 100 µM each time. For the same molecule, the TGI in the assay with KM12 colon, in the assay on OVCAR-5 ovarian, with UO-31 renal, in the assay on CCRF-CEM leukemia, with COLO 205 colon and in the assay on NCI-H23 lung was greater than 100 µM each time. Also, the total growth inhibition concentration (TGI) with EKVX NSCLC, in the assay on NCI-H460 lung, with UACC-257 melanoma, in the assay with U251 CNS, in the assay with MALME-3M melanoma and with HCC-2998 colon was greater than 100 µM throughout. Further, the TGI in the assay with OVCAR-3 ovarian and in the assay on A498 renal was greater than 100 µM each time.
On to `CCCCN1C=CN2c3nc4cc(C)c(C)cc4n3C(C(=O)OC)=C(C(=O)OC)C12` (stereo not drawn), for which the TGI with SF-295 CNS, in the assay with UACC-62 melanoma, in the assay on CAKI-1 renal, in the assay on NCI-H522 lung, in the assay with HOP-62 NSCLC and with SK-OV-3 ovarian was greater than 100 µM throughout. Also, the TGI in the assay on OVCAR-5 ovarian, in the assay with UO-31 renal, with CCRF-CEM leukemia, with NCI-H23 lung, in the assay with EKVX NSCLC and in the assay on NCI-H460 lung was greater than 100 µM in each case. For the same molecule, the TGI in the assay with UACC-257 melanoma, in the assay on U251 CNS, in the assay on MALME-3M melanoma, with HCC-2998 colon and in the assay on OVCAR-3 ovarian was greater than 100 µM each time.
Regarding `CN(C)C(=O)OCOC(=O)N(C)C`, the TGI in the assay with SF-295 CNS, with UACC-62 melanoma, in the assay with CAKI-1 renal, in the assay on NCI-H522 lung, in the assay on HOP-62 NSCLC and in the assay on SK-OV-3 ovarian was greater than 100 µM in each case. In addition, the total growth inhibition concentration (TGI) in the assay on KM12 colon, with OVCAR-5 ovarian, with UO-31 renal, in the assay with CCRF-CEM leukemia, with COLO 205 colon and in the assay with NCI-H23 lung was greater than 100 µM throughout. Moreover, the TGI with EKVX NSCLC, in the assay with NCI-H460 lung, in the assay on UACC-257 melanoma, in the assay on U251 CNS, in the assay on MALME-3M melanoma and in the assay with HCC-2998 colon was greater than 100 µM throughout. For the same molecule, the TGI with OVCAR-3 ovarian and in the assay with A498 renal was greater than 100 µM each time.
